Assay results from ChEMBL document CHEMBL1201862, “PubChem BioAssay data set” (2004).
Calls of active or inactive are those of the source.

Experiments:
[1] = blockade of melanocortin 4 receptor signaling – cell-based, plate reader, cherry pick, counter-screen for LGR2 antagonist project, dose response (AID 743444); type: functional;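 note: transfected HEK 293 cells stimulated with alpha-MSH peptide; potency of inhibitors of the alpha-MSH evoked signal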
BJ [2] = test: BJ-TERT fibroblast viability loss – cell-based, RAS-independent, luminescence, dose response (AID 1933); type: functional; conditions: Homo sapiens
[3] = target: T1, Replicative DNA helicase DnaB (Mycobacterium tuberculosis, UniProt P9WMR3); test: DnaB intein splicing inhibitors, dose response, biochemical, cell-free fluorescence (AID 449749); type: functional
T1 sequence (P9WMR3 whole entry): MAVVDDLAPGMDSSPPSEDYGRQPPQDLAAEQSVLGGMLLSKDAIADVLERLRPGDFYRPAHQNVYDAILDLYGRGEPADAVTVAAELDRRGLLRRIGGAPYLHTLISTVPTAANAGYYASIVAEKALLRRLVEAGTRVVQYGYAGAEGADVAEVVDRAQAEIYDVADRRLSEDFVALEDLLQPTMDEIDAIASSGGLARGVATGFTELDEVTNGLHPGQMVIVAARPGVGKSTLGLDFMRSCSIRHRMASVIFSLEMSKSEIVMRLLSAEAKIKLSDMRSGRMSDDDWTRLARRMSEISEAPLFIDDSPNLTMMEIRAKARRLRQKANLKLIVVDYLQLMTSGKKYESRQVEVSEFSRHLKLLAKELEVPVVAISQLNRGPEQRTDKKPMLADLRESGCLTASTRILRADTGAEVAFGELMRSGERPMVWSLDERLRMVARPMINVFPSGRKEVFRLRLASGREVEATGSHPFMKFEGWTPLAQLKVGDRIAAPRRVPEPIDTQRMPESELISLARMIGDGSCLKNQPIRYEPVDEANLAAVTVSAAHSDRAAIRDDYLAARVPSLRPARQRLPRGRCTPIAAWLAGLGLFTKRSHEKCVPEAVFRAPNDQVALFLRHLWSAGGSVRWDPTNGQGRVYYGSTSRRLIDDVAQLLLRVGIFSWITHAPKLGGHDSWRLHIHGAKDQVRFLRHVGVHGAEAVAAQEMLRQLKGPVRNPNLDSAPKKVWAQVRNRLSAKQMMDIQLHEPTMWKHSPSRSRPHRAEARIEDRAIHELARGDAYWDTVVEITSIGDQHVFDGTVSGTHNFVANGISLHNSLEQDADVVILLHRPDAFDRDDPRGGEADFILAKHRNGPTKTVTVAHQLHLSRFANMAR

BJ [4] = test: BJ-TERT-LT-ST fibroblast viability loss – cell-based, RAS-independent, luminescence, dose response (AID 1935); type: functional; conditions: Homo sapiens;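 note: BJ fibroblasts immortalized with TERT plus LT and ST oncogenes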
[5] = A549 cell cytotoxicity, dose response, cytotoxicity control, plate reader, cherry-pick, antagonist series (AID 743412); type: functional, cell-based
[6] = viability loss in HEK293 cells – cell-based, plate reader, cherry-picked samples, cytotoxicity control, dose response (AID 743446); type: functional
[7] = DRD fibroblast viability loss – cell-based, non-viral oncogenic, luminescence, dose response (AID 1934); type: functional; conditions: Homo sapiens
BJ [8] = test: cells; type: functional, cell-based; conditions: Homo sapiens
[9] = toxicity toward HepG2 liver cells – cell-based, plate reader, cherry-pick, antagonist series, cytotoxicity control, dose response (AID 743416); type: functional
[10] = blockers of bursicon-stimulated LGR2 cAMP reporter – cell-based, HEK293, CRE-luciferase reporter, cherry pick, set 2, dose response (AID 743343); type: functional;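 note: transfected cells were stimulated with diluted bursicon conditioned medium after compound addition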
Protein RecA = target: T2, Protein RecA (Mycobacterium tuberculosis, UniProt P9WHJ3); test: Fluorescence Cell-Free Homogeneous Dose Retest to Identify Inhibitors of RecA-Intein Splicing Activity. [Related pubchem assays (depositor defined):AID2097, AID2223, AID489010, AID492950]; type: functional
T2 sequence (P9WHJ3 whole entry): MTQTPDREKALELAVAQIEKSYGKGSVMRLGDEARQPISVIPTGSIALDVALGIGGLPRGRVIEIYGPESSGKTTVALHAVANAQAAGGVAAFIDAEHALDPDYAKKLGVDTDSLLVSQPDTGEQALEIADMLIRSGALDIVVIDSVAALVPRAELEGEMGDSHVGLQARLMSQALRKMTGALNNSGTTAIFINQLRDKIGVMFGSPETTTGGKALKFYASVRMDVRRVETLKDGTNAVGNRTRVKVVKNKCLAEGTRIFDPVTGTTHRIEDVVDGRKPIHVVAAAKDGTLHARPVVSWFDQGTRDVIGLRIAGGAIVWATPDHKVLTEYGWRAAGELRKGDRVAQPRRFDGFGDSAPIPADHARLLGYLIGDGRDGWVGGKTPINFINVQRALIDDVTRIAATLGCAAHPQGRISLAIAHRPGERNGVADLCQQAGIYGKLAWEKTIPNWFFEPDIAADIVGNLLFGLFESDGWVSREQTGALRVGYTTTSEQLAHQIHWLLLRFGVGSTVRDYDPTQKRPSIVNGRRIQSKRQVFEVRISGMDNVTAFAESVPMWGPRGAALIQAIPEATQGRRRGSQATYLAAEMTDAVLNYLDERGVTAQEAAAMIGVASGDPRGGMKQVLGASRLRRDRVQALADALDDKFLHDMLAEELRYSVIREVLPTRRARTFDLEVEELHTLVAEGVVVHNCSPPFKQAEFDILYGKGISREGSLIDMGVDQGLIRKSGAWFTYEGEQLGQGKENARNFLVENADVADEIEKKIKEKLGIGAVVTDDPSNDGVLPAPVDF

Cytochrome P450 1A2 = target: T3, Cytochrome P450 1A2 (Homo sapiens, UniProt P05177);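 note: PubChem cytochrome P450 panel assay, CYP1A2 panel member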
T3 sequence (P05177 whole entry): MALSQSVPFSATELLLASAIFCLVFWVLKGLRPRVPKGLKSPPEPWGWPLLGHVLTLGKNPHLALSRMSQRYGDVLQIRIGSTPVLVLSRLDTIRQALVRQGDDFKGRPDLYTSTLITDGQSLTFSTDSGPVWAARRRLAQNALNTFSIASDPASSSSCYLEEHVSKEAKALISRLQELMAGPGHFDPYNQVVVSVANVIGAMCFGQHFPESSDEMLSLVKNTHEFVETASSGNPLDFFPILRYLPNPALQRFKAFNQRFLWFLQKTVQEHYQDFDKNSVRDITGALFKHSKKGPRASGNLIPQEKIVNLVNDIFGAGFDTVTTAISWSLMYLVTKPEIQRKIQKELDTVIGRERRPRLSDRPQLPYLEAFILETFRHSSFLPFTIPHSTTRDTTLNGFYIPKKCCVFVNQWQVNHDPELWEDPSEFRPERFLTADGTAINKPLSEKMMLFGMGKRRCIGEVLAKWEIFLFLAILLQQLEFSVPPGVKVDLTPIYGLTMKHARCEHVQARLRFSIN

[11] = target: T4, Histone-lysine N-methyltransferase NSD2 (Homo sapiens, UniProt O96028); type: biochemical
T4 sequence (O96028 whole entry): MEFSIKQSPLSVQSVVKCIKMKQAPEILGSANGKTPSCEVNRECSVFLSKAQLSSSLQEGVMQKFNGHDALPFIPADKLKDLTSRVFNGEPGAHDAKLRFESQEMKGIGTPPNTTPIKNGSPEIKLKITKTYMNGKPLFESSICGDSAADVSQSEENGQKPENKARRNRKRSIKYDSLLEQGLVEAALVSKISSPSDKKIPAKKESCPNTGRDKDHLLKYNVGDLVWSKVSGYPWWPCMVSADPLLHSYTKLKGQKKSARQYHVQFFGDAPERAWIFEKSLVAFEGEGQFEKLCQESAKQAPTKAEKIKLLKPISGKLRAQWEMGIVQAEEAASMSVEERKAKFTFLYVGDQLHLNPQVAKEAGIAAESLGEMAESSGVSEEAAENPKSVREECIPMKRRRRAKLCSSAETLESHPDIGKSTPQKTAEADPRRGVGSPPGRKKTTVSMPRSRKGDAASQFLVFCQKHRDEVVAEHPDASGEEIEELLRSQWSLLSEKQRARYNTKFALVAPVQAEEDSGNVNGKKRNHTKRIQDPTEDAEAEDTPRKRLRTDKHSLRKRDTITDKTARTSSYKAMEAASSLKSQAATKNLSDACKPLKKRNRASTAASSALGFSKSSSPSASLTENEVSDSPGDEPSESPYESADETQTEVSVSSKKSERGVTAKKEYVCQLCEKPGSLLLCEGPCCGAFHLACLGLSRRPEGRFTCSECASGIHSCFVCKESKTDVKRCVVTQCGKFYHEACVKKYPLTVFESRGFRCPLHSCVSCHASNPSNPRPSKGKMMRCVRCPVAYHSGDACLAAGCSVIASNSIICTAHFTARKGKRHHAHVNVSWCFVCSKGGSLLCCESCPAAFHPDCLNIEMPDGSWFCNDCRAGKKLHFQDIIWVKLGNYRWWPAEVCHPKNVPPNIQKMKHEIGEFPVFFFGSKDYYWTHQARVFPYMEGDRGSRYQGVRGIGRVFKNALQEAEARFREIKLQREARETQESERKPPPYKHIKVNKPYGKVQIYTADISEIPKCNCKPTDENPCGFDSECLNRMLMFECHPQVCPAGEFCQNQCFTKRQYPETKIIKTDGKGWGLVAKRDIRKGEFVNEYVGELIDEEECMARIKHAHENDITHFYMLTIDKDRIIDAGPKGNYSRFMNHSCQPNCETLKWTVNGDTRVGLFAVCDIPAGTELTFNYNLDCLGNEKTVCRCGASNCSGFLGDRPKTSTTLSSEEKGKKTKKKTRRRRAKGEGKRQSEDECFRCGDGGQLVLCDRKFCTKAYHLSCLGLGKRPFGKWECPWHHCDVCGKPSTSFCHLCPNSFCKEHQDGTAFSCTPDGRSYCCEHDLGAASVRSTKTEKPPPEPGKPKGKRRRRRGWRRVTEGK

[12] = target: T5, Tyrosyl-DNA phosphodiesterase 2 (Homo sapiens, UniProt O95551); test: potency against TDP2 phosphodiesterase activity – biochemical, epi absorbance, IC50, dose response (AID 743297)
T5 sequence (O95551 whole entry): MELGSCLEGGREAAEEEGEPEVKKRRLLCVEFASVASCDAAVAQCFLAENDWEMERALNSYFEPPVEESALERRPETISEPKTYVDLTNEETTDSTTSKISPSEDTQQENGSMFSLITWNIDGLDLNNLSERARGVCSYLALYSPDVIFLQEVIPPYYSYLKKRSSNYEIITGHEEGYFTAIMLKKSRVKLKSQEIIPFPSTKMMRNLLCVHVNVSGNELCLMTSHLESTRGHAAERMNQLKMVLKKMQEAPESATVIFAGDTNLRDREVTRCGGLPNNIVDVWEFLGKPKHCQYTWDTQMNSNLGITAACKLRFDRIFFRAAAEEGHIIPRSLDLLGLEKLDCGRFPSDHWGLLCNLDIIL

fMet-Leu-Phe receptor = target: T6, fMet-Leu-Phe receptor (Homo sapiens, UniProt P21462); test: formyl peptide receptor binders – dose response (AID 519); type: functional
T6 sequence (P21462 whole entry): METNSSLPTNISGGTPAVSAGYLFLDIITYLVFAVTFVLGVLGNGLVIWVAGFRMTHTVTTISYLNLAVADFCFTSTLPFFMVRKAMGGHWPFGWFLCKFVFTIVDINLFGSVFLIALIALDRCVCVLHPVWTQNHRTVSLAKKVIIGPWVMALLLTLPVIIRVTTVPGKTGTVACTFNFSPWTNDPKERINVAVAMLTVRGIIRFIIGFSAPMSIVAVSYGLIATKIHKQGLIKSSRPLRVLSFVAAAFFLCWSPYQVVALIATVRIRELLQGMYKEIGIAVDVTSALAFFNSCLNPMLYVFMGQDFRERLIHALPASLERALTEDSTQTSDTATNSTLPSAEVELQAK

Paired box protein Pax-8 = Paired box protein Pax-8 (Homo sapiens, UniProt Q06710); test: PAX8 transcriptional activity inhibition in RMG-I – RMG-I cells, luciferase, cherry-pick, dose response (AID 687027); type: functional, cell-based;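 note: luciferase reporter driven by Pax8 target thyroperoxidase promoter measured by SteadyGlo luminescence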
[13] = general cell-killing toxicity readout – plate reader, dry powder samples, cytotoxicity control for PAX8 inhibitor project, dose response (AID 743021); type: functional, cell-based
[14] = OVCAR-3 cell viability loss – plate reader, dry powder samples, PAX8 inhibitor project, dose response (AID 743044); type: functional, cell-based
[15] = OVCAR8 cell viability loss – plate reader, dry powder samples, PAX8 project, dose response (AID 743197); type: functional, cell-based; conditions: OVCAR-8

Chain of Paired box protein Pax-8 (Q06710 whole entry): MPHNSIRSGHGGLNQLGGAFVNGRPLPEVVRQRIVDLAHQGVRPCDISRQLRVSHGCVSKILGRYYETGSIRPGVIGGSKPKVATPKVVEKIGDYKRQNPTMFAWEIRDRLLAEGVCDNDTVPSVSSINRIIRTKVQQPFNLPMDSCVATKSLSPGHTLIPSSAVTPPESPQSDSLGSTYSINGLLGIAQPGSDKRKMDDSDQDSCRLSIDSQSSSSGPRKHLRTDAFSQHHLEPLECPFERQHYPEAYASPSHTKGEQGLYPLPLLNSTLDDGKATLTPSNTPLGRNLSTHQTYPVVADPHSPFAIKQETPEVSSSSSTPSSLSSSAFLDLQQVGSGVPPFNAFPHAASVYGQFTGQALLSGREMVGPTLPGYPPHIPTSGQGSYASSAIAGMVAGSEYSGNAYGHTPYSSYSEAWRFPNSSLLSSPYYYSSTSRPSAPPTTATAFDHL

In the case of `O=[N+]([O-])c1ccc(Sc2nnnn2-c2ccccc2)nc1`, the AC50 [1] is reported as 17.6 µM (active), the EC50 (BJ [2]) is reported as 6.26 µM (active) and the AC50 [3] is reported as 14.5 µM (active). The EC50 (BJ [4]) was > 150 µM (inconclusive), the AC50 [5] was 18.5 µM (active) and the AC50 [6] was 12.5 µM (active). For the same compound, the EC50 [7] was 9.86 µM (active), the EC50 (BJ [8]) was 63.6 µM (inconclusive) and the AC50 [9] was 15.7 µM (active). For the same compound, the AC50 [10] was 14.9 µM (active) and the EC50 (Protein RecA) was 5.61 µM (active).
In the case of `Cc1cccc(Cn2ncc(Cl)c(Cl)c2=O)c1`, the AC50 (Cytochrome P450 1A2) is reported as 22.4 µM (inconclusive), the AC50 [3] is reported as 27.5 µM (active) and the AC50 [5] is reported as 30 µM (active). For the same compound, the AC50 [6] was 17.4 µM (active), the AC50 [9] was 37.3 µM (active) and the EC50 (Protein RecA) was 6.04 µM (active).
With `S=C(Nc1ccc2nsnc2c1)N1CCCCC1` the AC50 [11] was 5.13 µM (active) and the IC50 [12] was > 128 µM (inactive).
For `COC(=O)Cc1n[nH]c2c1C(C1C=CCCC1)C(C#N)=C(N)O2` (configuration not stated), the Ki (fMet-Leu-Phe receptor) was > 66.7 µM (inactive).
In the case of `C[C@@H]1CCCCO[C@H](CN(C)S(=O)(=O)c2ccc(F)cc2)[C@H](C)CN([C@@H](C)CO)C(=O)c2cc(NS(=O)(=O)c3ccc(Cl)cc3)ccc2O1`, the AC50 (Paired box protein Pax-8) is reported as 9.75 µM (active) and the AC50 [13] is reported as 68.4 µM (active).
For `C[C@H](CO)N1C[C@H](C)[C@H](CN(C)S(=O)(=O)c2ccc(Cl)cc2)Oc2c(NC(=O)Nc3ccc(F)cc3)cccc2C1=O`, the AC50 [14] was 31.8 µM (active), the AC50 (Paired box protein Pax-8) was 10.2 µM (active) and the AC50 [13] was 51.4 µM (active). For the same compound, the AC50 [15] was 31.8 µM (active).
For `C[N+]1(C)[C@@H]2C[C@@H](OC(=O)[C@H](CO)c3ccccc3)C[C@H]1[C@@H]1O[C@@H]12`, the Ki (fMet-Leu-Phe receptor) was > 66.7 µM (inactive).
